Test system: patients with JAK2 positive refractory MPD
Test: Clinical trial in patients with JAK2 positive refractory MPD
Assay type: in vivo, human
Details: one trial, eight patients

**Q.** Cc1cc(Nc2cc(N3CCN(C)CC3)nc(Sc3ccc(NC(=O)C4CC4)cc3)n2)n[nH]1 [Compound I, Cyclopropane carboxylic acid {4-[4-(4-methyl-piperazin-1-yl)-6-(5-methyl-2H-pyrazol-3-ylamino)-pyrimidin-2-ylsulphanyl]-phenyl}-amide] was tested. Which “patients who achieved an objective response” value did it give?
**A.** six out of eight
